According to BindingDB's records for doi:10.1021/jm00102a008 (University of South Florida, 1993):

Target: T1, Adenosine receptor A1 (Cavia porcellus, UniProt P47745)
T1 sequence (P47745 whole entry): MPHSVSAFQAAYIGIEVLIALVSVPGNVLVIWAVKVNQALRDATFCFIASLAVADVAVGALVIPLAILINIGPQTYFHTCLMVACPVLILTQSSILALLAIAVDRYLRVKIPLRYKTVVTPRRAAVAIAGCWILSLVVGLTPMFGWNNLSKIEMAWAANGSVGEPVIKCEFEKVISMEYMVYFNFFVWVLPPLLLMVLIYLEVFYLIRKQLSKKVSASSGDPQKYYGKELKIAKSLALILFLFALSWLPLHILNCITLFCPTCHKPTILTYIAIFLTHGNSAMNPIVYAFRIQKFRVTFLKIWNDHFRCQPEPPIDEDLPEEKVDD
Assay: Tested for adenosine A1 receptor agonistic activity by determining concentration needed to prolong the stimulus-QRS interval by 50% of the maximum response

| EC50 | SMILES |
| --- | --- |
| 49 µM | Nc1nc(N=NCc2cccc(Cl)c2)nc2c1ncn2C1O[C@H](CO)[C@@H](O)[C@H]1O (some centres not stated) |
| 83.2 µM | Nc1nc(N=NCc2ccccc2)nc2c1ncn2C1O[C@H](CO)[C@@H](O)[C@H]1O (some centres not stated) |
| 41.7 µM | Nc1nc(N=NCc2ccccc2F)nc2c1ncn2C1O[C@H](CO)[C@@H](O)[C@H]1O (some centres not stated) |
| 49 µM | Nc1nc(N=NCc2ccccc2Cl)nc2c1ncn2C1O[C@H](CO)[C@@H](O)[C@H]1O (some centres not stated) |
| 41.7 µM | Nc1nc(N=NCc2ccccn2)nc2c1ncn2C1O[C@H](CO)[C@@H](O)[C@H]1O (some centres not stated) |
| 83.2 µM | Nc1nc(N=NCCc2ccccc2)nc2c1ncn2C1O[C@H](CO)[C@@H](O)[C@H]1O (some centres not stated) |
| 41.7 µM | Nc1nc(N=NCc2cccs2)nc2c1ncn2C1O[C@H](CO)[C@@H](O)[C@H]1O (some centres not stated) |
